Test results published in the C3SDB collision cross section collection.

Assays:
[1] = instrument: DT, single field, calibrated with Agilent tune mix (Agilent)
[2] = instrument: TW, calibrated with phosphatidylcholines (ESI+) and phosphatidylethanolamines (ESI-)
[3] = [M+Na]+; instrument: DT; stepped-field

Row | collision cross section (N2) ([1]; [M+H]+) | collision cross section (N2) ([2]; [M+H]+) | collision cross section (N2) ([1]; [M-H]-) | collision cross section (N2) ([2]; [M-H]-) | collision cross section (N2) ([2]; [M+Na]+) | other results | SMILES
1 | 298.8 Å² | 295.5 Å² |  |  |  | collision cross section (N2) ([1]; [M+Na]+): 302 Å² | CCCCC/C=C\C/C=C\C/C=C\C/C=C\CCCCCC(=O)O[C@H](COC(=O)CCCCCCC/C=C\CCCCCCCC)COP(=O)([O-])OCC[N+](C)(C)C [PC(40:5)]
2 | 293.6 Å² | 293.2 Å² |  |  |  |  | CCCCC/C=C\C/C=C\C/C=C\C/C=C\CCCCCC(=O)O[C@H](COC(=O)CCCC/C=C\C/C=C\C/C=C\CCCCC)COP(=O)([O-])OCC[N+](C)(C)C [PC(40:7)]
3 | 281.3 Å² | 278.7 Å² | 269.9 Å² | 268.8 Å² |  | collision cross section (N2) ([1]; [M+Na]+): 287.5 Å²; collision cross section (N2) [3]: 288.5 Å² | CCCCCCCCCC/C=C\CCCCCCCCCC(=O)O[C@H](COC(=O)CCCCCCCCCCCCC)COP(=O)(O)OCCN [PE(36:1)]
4 |  | 280.2 Å² |  |  |  |  | CC/C=C\C/C=C\C/C=C\C/C=C\C/C=C\C/C=C\CCC(=O)OC[C@H](COP(=O)(O)OCCN)OC(=O)CCC/C=C\C/C=C\C/C=C\C/C=C\C/C=C\CC [PE(42:11)]
5 |  |  | 265.6 Å² | 265.2 Å² |  |  | CC/C=C\C/C=C\C/C=C\CCCCCCCC(=O)O[C@H](CO/C=C\CCCCCCCCCCCCCCCC)COP(=O)(O)OCCN [PE(p36:3)]
6 | 278 Å² | 276.9 Å² |  | 268.1 Å² |  |  | CC/C=C\C/C=C\C/C=C\C/C=C\C/C=C\C/C=C\CCC(=O)O[C@H](CO/C=C\CCCCCCCCCCCCCC)COP(=O)(O)OCCN [PE(p38:6)]
7 |  | 286.9 Å² |  | 276.1 Å² | 290.1 Å² |  | CCCCC/C=C\C/C=C\C/C=C\C/C=C\CCCC(=O)O[C@H](CO/C=C\CCCCCCCCCCCCCCCCCC)COP(=O)(O)OCCN [PE(p40:4)]
8 |  | 284.7 Å² | 276.1 Å² | 274.8 Å² |  |  | CC/C=C\C/C=C\C/C=C\C/C=C\C/C=C\CCCC(=O)O[C@H](CO/C=C\CCCCCCCCCCCCCCCCCC)COP(=O)(O)OCCN [PE(p40:5)]
9 |  |  |  |  | 288.3 Å² |  | CC/C=C\C/C=C\C/C=C\C/C=C\C/C=C\CCCC(=O)OC[C@H](COP(=O)(O)OC[C@@H](O)CO)OC(=O)CCCCCCCCC/C=C\C/C=C\CCCCC [PG(40:7)]
10 | 299.3 Å² |  | 289.3 Å² | 288.7 Å² | 293.3 Å² | collision cross section (N2) ([1]; [M+Na]+): 297.6 Å² | CCCC/C=C\CCCCCCCC(=O)OC[C@H](COP(=O)(O)O[C@H]1C(O)C(O)C(O)[C@@H](O)C1O)OC(=O)CCCCCCCCC/C=C\CCCCCCCCCC (some centres undefined) [PI(36:2)]
11 |  |  |  |  | 292.4 Å² |  | CCCCC/C=C\C/C=C\C/C=C\CCCCCCC(=O)O[C@H](COC(=O)CCCC/C=C\C/C=C\C/C=C\CCCCC)COP(=O)(O)O[C@H]1C(O)C(O)C(O)[C@@H](O)C1O (some centres undefined) [PI(38:6)]
12 | 307.1 Å² |  | 297.7 Å² | 296.5 Å² | 301.1 Å² | collision cross section (N2) ([1]; [M+NH4]+): 308.6 Å²; collision cross section (N2) ([1]; [M+Na]+): 305.8 Å² | CC/C=C\C/C=C\C/C=C\C/C=C\CCCCC(=O)OC[C@H](COP(=O)(O)O[C@H]1C(O)C(O)C(O)[C@@H](O)C1O)OC(=O)CCCCCCCCC/C=C\CCCCCCCCCC (some centres undefined) [PI(40:5)]
13 |  |  | 296.4 Å² |  | 299.8 Å² | collision cross section (N2) ([1]; [M+NH4]+): 306.1 Å² | CC/C=C\C/C=C\C/C=C\C/C=C\C/C=C\C/C=C\CCC(=O)O[C@H](COC(=O)CCCCCCCCCCCCCCCCC)COP(=O)(O)O[C@H]1C(O)C(O)C(O)[C@@H](O)C1O (some centres undefined) [PI(40:6)]
14 |  |  |  |  |  | collision cross section (N2) ([2]; [M+H-H2O]+): 295.5 Å² | CCCCCCCC/C=C\CCCCCCCC(=O)OC[C@H](COP(=O)(O)O[C@H]1C(O)C(O)C(O)[C@@H](OP(=O)(O)O)C1O)OC(=O)CCCCCCC/C=C\CCCCCCCC (some centres undefined) [PIP(36:2)]
15 |  |  |  | 279 Å² |  |  | CCCCC/C=C\C/C=C\C/C=C\CCCCCCC(=O)OC[C@H](COP(=O)(O)OC[C@H](N)C(=O)O)OC(=O)CCCCCCC/C=C\C/C=C\CCCCC [PS(38:5)]
16 |  | 292.2 Å² |  |  |  |  | CCCCCCCCCCCCC=CC[C@@H](O)[C@H](COP(=O)([O-])OCC[N+](C)(C)C)NC(=O)CCCCCCCCCCCCCCCCCCC [SM(d18:1/20:0)]
17 |  | 302.2 Å² |  |  |  |  | CCCCCCCCCCCCC=CC[C@@H](O)[C@H](COP(=O)([O-])OCC[N+](C)(C)C)NC(=O)CCCCCCCCCCCCCCCCCCCCCCC [SM(d18:1/24:0)]
18 |  | 300.7 Å² |  |  |  |  | CCCCCCCCCCCCC=CC[C@@H](O)[C@H](COP(=O)([O-])OCC[N+](C)(C)C)NC(=O)CC=CCCCCCCCCCCCCCCCCCCCC [SM(d18:1/24:1)]
